Results published in US11358987B2, “Albicidin derivatives, their use and synthesis” (priority 2018, dated 2022).
Values after ≈ are worked out from the molar mass of the structure shown. Read-outs that look alike come from different tables or passages of the source.

Columns and labels:
Assay in all cases: Microdilution assay, MIC determination (CLSI M07-A9)
Type in all cases: cell-based
S. typhimurium TA100 = settings: Salmonella enterica, 20 h
Experimental: (§1) E. coli DSM 1116; E. coli BW25113; S. typhimurium TA100; Bacillus subtilis DSM10; M. phlei DSM750 and Micrococcus luteus DSM1790
(§2) The tests were performed using the micro dilution method.
(§3) The determination of MIC values was performed according to the ninth edition of the Approved Standard M07-A9 (CLSI. Methods for Dilution Antimicrobial Susceptibility Tests for Bacteria That Grow Aerobically; Approved Standard-Ninth Edition. CLSI document M07-A9. Wayne, Pa.: Clinical and Laboratory Standards Institute; 2012.)
(§4) The test was carried out for the six different bacterial strains 20 μL of cryo stock of each strain were inoculated in 20 mL of LB media (Lysogeny broth: 10 g/L peptone, 5 g/L yeast extract, 5 g/L NaCl) followed by incubation over night at 37° C., 200 rpm. The test inoculum was adjusted by the 0.5 McFarland Standard (OD625 from 0.08 to 0.1). Within 15 min of preparation, the adjusted inoculum suspension was diluted in MHBII media (BBL™ Mueller-Hinton Broth II, Becton, Dickinson and Company, New Jersey/USA) so that each well contained approximately 5×10^5 CFU/mL in a final volume of 100 μL. 95 μL of the inoculum were applied per well and 5 μL of the (diluted) antibiotic substance were added.
(§5) Previously the dry antibiotic compounds were dissolved in DMSO (100%) with a concentration of 2560 μg/mL and the resulting stock solutions were further diluted in DMSO (100%). 5 μL of each antibiotic dilution were applied to the microdilution tray to reach final concentrations of 64 μg/mL to 0.008 μg/mL. One row of each well plate was left as a growth control without antibiotic substances and another row of the microdilution tray was used as sterility control (only MHB II-media). The antimicrobial effect of the solvent (DMSO) was tested by adding 5 μL DMSO to several wells without antibiotics.
(§6) Purity check and cell titer control were performed according to International Standard M07-A9 on Mueller-Hinton II Agar (Mueller Hinton II Broth, 15 g/L agar-agar).
(§7) Both microdilution trays and agar plates were incubated at 37° C. for 20 h and subsequently analyzed visually.

M. luteus DSM1790 = settings: Micrococcus luteus
Experimental: as §1, §2, §3, §4, §5, §6, §7

B. subtilis DSM10 = settings: Bacillus subtilis
Experimental: as §1, §2, §3, §4, §5, §6, §7

E. coli DSM1116 = settings: Escherichia coli
Experimental: as §1, §2, §3, §4, §5, §6, §7

E. coli BW25113 = settings: Escherichia coli
Experimental: as §1, §2, §3, §4, §5, §6, §7

M. phlei DSM750 = settings: Mycolicibacterium phlei
Experimental: as §1, §2, §3, §4, §5, §6, §7

[1] = S. typhimurium TA100, 37° C., MHBII media, read-out: MIC
[2] = M. luteus DSM1790, 37° C., 20 h, MHBII media, read-out: MIC
[3] = B. subtilis DSM10, 37° C., 20 h, MHBII media, read-out: MIC
[4] = E. coli DSM1116, 37° C., 20 h, MHBII media, read-out: MIC
[5] = E. coli BW25113, 37° C., 20 h, MHBII media, read-out: MIC
[6] = M. phlei DSM750, 37° C., 20 h, MHBII media, read-out: MIC

Compound	MIC (S. typhimurium TA100; TYPHIMURIUM)	MIC (M. luteus DSM1790; DSM1790, 20 h)	MIC (B. subtilis DSM10; DSM10, 20 h)	MIC (E. coli DSM1116; DSM1116, 20 h)	MIC (E. coli BW25113; BW25113, 20 h)	MIC (M. phlei DSM750; DSM750, 20 h)	MIC (S. typhimurium TA100; [1])	MIC (M. luteus DSM1790; [2])	MIC (B. subtilis DSM10; [3])	MIC (E. coli DSM1116; [4])	MIC (E. coli BW25113; [5])	MIC (M. phlei DSM750; [6])
COc1c(NC(=O)c2ccc(NC(=O)c3ccc(NC(=O)[C@H](CC#N)NC(=O)c4ccc(NC(=O)/C(C)=C/c5ccc(O)cc5)cc4)cc3)c(OC)c2O)ccc(C(=O)O)c1O [Albicidin]	63 µg/mL (≈ 74.7 µM)	1000 µg/mL (≈ 1190 µM)	250 µg/mL (≈ 297 µM)	63 µg/mL (≈ 74.7 µM)	63 µg/mL (≈ 74.7 µM)	2000 µg/mL (≈ 2370 µM)						
COc1c(NC(=O)c2ccc(NC(=O)c3ccc(NC(=O)C(Cc4cnn[nH]4)NC(=O)c4ccc(NC(=O)/C(C)=C/c5ccc(O)cc5)cn4)cc3)c(OC)c2O)ccc(C(=O)O)c1O (stereo not drawn) [Compound 1]	16 µg/mL (≈ 18.1 µM)	500 µg/mL (≈ 564 µM)	250 µg/mL (≈ 282 µM)	16 µg/mL (≈ 18.1 µM)	16 µg/mL (≈ 18.1 µM)	2000 µg/mL (≈ 2260 µM)						
COc1c(NC(=O)c2ccc(NC(=O)c3ccc(NC(=O)C(Cc4cnn[nH]4)NC(=O)c4ccc(NC(=O)/C(C)=C/c5ccc(O)cc5)nc4)cc3)c(OC)c2O)ccc(C(=O)O)c1O (stereo not drawn) [Compound 2]							16 µg/mL (≈ 18.1 µM)	2000 µg/mL (≈ 2260 µM)	500 µg/mL (≈ 564 µM)	31 µg/mL (≈ 35 µM)	16 µg/mL (≈ 18.1 µM)	2000 µg/mL (≈ 2260 µM)
COc1c(NC(=O)c2ccc(NC(=O)c3ccc(NC(=O)C(Cc4cnn[nH]4)NC(=O)c4ccc(NC(=O)/C(C)=C/c5ccc(O)cc5)nn4)cc3)c(OC)c2O)ccc(C(=O)O)c1O (stereo not drawn) [Compound 3]							31 µg/mL (≈ 35 µM)	4000 µg/mL (≈ 4510 µM)	1000 µg/mL (≈ 1130 µM)	31 µg/mL (≈ 35 µM)	31 µg/mL (≈ 35 µM)	2000 µg/mL (≈ 2260 µM)
COc1c(NC(=O)c2ccc(NC(=O)c3ccc(NC(=O)C(Cc4cnn[nH]4)NC(=O)c4ccc(NC(=O)/C(C)=C/c5ccc(O)cc5)cn4)cc3O)c(OC)c2O)ccc(C(=O)O)c1O (stereo not drawn) [Compound 4]							16 µg/mL (≈ 17.7 µM)	2000 µg/mL (≈ 2220 µM)	1000 µg/mL (≈ 1110 µM)	31 µg/mL (≈ 34.4 µM)	31 µg/mL (≈ 34.4 µM)	2000 µg/mL (≈ 2220 µM)
COc1c(NC(=O)c2ccc(NC(=O)c3ccc(NC(=O)C(Cc4cnn[nH]4)NC(=O)c4ccc(NC(=O)/C(C)=C/c5ccc(F)cc5)cn4)cc3O)c(OC)c2O)ccc(C(=O)O)c1O (stereo not drawn) [Compound 5]							16 µg/mL (≈ 17.7 µM)	2000 µg/mL (≈ 2210 µM)	250 µg/mL (≈ 277 µM)	16 µg/mL (≈ 17.7 µM)	63 µg/mL (≈ 69.7 µM)	2000 µg/mL (≈ 2210 µM)
COc1nc(C(=O)Nc2ccc(C(=O)O)c(O)c2OC)ccc1NC(=O)c1ccc(NC(=O)C(Cc2cnn[nH]2)NC(=O)c2ccc(NC(=O)/C(C)=C/c3ccc(O)cc3)cc2)cc1 (stereo not drawn) [Compound 6]							31 µg/mL (≈ 35.6 µM)	125 µg/mL (≈ 144 µM)	250 µg/mL (≈ 287 µM)	16 µg/mL (≈ 18.4 µM)	16 µg/mL (≈ 18.4 µM)	1000 µg/mL (≈ 1150 µM)
COc1nc(C(=O)O)ccc1NC(=O)c1ccc(NC(=O)c2ccc(NC(=O)C(Cc3cnn[nH]3)NC(=O)c3ccc(NC(=O)/C(C)=C/c4ccc(O)cc4)cc3)cc2)c(OC)c1O (stereo not drawn) [Compound 7]							250 µg/mL (≈ 287 µM)	> 8000 µg/mL	2000 µg/mL (≈ 2300 µM)	250 µg/mL (≈ 287 µM)	500 µg/mL (≈ 575 µM)	8000 µg/mL (≈ 9200 µM)
COc1c(NC(=O)c2ccc(NC(=O)C(Cc3cnn[nH]3)NC(=O)c3ccc(NC(=O)/C(C)=C/c4ccc(O)cc4)cn3)cc2)ccc(C(=O)Nc2ccc(C(=O)O)c(O)c2OCCO)c1O (stereo not drawn) [Compound 8]							31 µg/mL (≈ 33.8 µM)	2000 µg/mL (≈ 2180 µM)	2000 µg/mL (≈ 2180 µM)	63 µg/mL (≈ 68.8 µM)	125 µg/mL (≈ 136 µM)	2000 µg/mL (≈ 2180 µM)
COc1c(NC(=O)c2ccc(NC(=O)c3ccc(NC(=O)C(Cc4cnn[nH]4)NC(=O)c4ccc(NC(=O)c5ccc(F)cc5)cn4)cc3O)c(OC)c2O)ccc(C(=O)O)c1O (stereo not drawn) [Compound 9]							310 µg/mL (≈ 359 µM)	> 8000 µg/mL	1000 µg/mL (≈ 1160 µM)	63 µg/mL (≈ 72.9 µM)	125 µg/mL (≈ 145 µM)	1000 µg/mL (≈ 1160 µM)
COc1c(NC(=O)c2ccc(NC(=O)c3ccc(NC(=O)C(Cc4cnn[nH]4)NC(=O)c4ccc(NC(=O)/C(C)=C/c5ccc(O)cc5)cc4)cn3)c(OC)c2O)ccc(C(=O)O)c1O (stereo not drawn) [Compound 10]							≤ 16 µg/mL	31 µg/mL (≈ 35 µM)	63 µg/mL (≈ 71.1 µM)	≤ 16 µg/mL	≤ 16 µg/mL	250 µg/mL (≈ 282 µM)
